Common to all, as to assay type: biochemical
For assay [1], the target named is T1, recombinant human GAA (rhGAA, Myozyme) (Homo sapiens, UniProt P10253).
T1 construct: purchased Genzyme
Put plainly: competitive FluoPol-ABPP assay on rhGAA with TAMRA-ABP II.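 As to all read-outs here: fluorescence polarization read at 540 nm excitation and 590 nm emission, background-corrected, normalized to uninhibited probe labelling as 100% and excess cyclosulfate as 0%.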 The conditions noted are these: for GAA FP% (residual FP-signal): library screen, 5 μM inhibitor, 25 nM ABP II.

Assay [2] addresses T2, human recombinant lysosomal α-glucosidase GAA (Myozyme) (Homo sapiens, UniProt P10253).
T2 construct: purchased Genzyme
Put plainly: fluorogenic substrate (4MU-α-D-glucopyranoside) assay on rhGAA. Conditions: Table S2, 4-MU alpha glucoside substrate, read-out: IC50 on rhGAA.

In assay [3] the target is T3, ER α-glucosidase GANAB (from Pompe disease Fibroblast lysates) (Homo sapiens, UniProt Q14697).
T3 construct: Cellular homogenates of Pompe fibroblasts (1 mg mL^−1) were used as protein source for GANAB; endogenous in cells; host or cells: Pompe disease fibroblasts (homogenate)
T3 sequence (Q14697 29-944): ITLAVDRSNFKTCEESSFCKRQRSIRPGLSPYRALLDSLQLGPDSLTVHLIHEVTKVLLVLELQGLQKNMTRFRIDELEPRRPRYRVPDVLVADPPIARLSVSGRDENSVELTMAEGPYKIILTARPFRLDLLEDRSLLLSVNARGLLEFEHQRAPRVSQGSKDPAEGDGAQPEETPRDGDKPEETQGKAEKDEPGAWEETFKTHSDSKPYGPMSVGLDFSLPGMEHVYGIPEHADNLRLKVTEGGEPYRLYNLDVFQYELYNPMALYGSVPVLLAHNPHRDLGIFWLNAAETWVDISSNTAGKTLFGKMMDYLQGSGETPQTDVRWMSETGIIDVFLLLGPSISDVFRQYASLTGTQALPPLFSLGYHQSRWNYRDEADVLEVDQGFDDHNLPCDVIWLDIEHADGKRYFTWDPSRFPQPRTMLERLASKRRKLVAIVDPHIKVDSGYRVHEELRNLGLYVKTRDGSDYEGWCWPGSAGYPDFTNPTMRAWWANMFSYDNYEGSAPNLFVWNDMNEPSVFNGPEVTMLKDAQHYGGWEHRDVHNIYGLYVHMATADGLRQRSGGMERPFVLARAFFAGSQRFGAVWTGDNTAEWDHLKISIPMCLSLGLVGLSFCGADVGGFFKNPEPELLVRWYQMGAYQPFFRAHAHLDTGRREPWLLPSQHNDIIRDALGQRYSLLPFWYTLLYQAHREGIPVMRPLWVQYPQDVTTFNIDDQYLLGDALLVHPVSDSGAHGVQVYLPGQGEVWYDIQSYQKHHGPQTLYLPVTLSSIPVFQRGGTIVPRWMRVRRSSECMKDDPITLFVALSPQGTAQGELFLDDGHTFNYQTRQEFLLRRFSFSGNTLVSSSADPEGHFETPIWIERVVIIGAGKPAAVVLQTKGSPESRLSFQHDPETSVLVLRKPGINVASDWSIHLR
T3 sequence (P14314 15-528 partner): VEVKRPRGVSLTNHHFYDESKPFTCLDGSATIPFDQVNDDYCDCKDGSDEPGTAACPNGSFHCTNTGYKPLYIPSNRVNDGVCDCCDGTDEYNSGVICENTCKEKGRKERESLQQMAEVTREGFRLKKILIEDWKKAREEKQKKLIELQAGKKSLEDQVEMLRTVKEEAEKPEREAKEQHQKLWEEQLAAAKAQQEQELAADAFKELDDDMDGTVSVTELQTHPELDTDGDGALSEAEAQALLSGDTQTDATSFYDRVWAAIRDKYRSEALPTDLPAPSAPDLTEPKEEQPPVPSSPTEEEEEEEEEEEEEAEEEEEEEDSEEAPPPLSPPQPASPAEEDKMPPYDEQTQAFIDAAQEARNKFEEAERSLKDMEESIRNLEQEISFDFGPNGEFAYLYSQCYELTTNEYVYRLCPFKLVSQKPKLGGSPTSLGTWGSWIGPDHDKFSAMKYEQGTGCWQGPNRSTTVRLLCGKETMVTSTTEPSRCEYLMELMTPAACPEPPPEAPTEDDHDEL
In words: fluorogenic substrate (4MU-α-D-glucopyranoside) assay on GANAB in Pompe fibroblast homogenates.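 Also: inhibitor preincubated 30 min at 37 °C with homogenate, then GANAB activity read after 2 h with 3.0 mM fluorogenic substrate in McIlvaine buffer containing 0.1% BSA.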

Where [4] appears, read: Table S2, 4-MU alpha glucoside substrate, read-out: IC50 on GANAB.

Structures are written as SMILES. Like-named read-outs stand apart in the source and are kept apart here.

On to `CC(C)=CCC/C(C)=C/CC/C(C)=C/CN1C[C@H](O)[C@@H](O)[C@H](O)[C@H]1CO` [#ID 16], for which, in assay [1], the “GAA FP% (residual FP-signal)” value came out at 0.9%. The results for the IC50 in assay [2] and in assay [3] (setting [4]) were 0.32 µM and 8.8 µM, respectively.
For `O=C(CCCCCN1C[C@H](O)[C@@H](O)[C@H](O)[C@H]1CO)NC12CC3CC(CC(C3)C1)C2` [#ID 18], in assay [1], the “GAA FP% (residual FP-signal)” value is recorded as 24%. In addition, the IC50 is 0.36 µM in assay [2] and 2.4 µM in assay [3] (setting [4]).
`CCCCOCCCCCN1C[C@H](O)[C@@H](O)[C@H](O)[C@H]1CO` [#ID 19]: the “GAA FP% (residual FP-signal)” value in assay [1] (listed as 19) is 28%. For the same compound, the IC50 in assay [2] (listed as 19) is 0.35 µM; in assay [3] (Table S2, 4-MU alpha glucoside substrate, listed as 19, read-out: IC50 on GANAB), 3.6 µM.
Consider `CCCCCOCCCCCN1C[C@H](O)[C@@H](O)[C@H](O)[C@H]1CO` [#ID 20], for which, in assay [1] (listed as 20), the “GAA FP% (residual FP-signal)” value came out at 17%. Moreover, the IC50 in assay [2] (listed as 20) is 0.33 µM; in assay [3] (Table S2, 4-MU alpha glucoside substrate, listed as 20, read-out: IC50 on GANAB), 19 µM.
`CCCCCCOCCCCCN1C[C@H](O)[C@@H](O)[C@H](O)[C@H]1CO` [#ID 21]: the “GAA FP% (residual FP-signal)” value in assay [1] amounted to 17%. The IC50 is 0.31 µM in assay [2] and 14.8 µM in assay [3] (setting [4]).
In the same order, the values of `CC(C)CCCC(C)C1CCC2C3CC=C4CC(OCCCCCN5CC(O)C(O)C(O)C5CO)CCC4(C)C3CCC12C` (centres unmarked) [#ID 22] are 6.5%, 0.17 µM and 6 µM.
With `CCCCCCCOCCCCCN1C[C@H](O)[C@@H](O)[C@H](O)[C@H]1CO` [#ID 23], in assay [1] (listed as 23), the “GAA FP% (residual FP-signal)” value stood at 16%. The IC50 in assay [2] (listed as 23) worked out at 0.29 µM; in assay [3] (Table S2, 4-MU alpha glucoside substrate, listed as 23, read-out: IC50 on GANAB), 7.2 µM.
Turning to `CCCCCCCCOCCCCCN1C[C@H](O)[C@@H](O)[C@H](O)[C@H]1CO` [#ID 25], the “GAA FP% (residual FP-signal)” value in assay [1] is listed as 13%. Besides, the values for the IC50 in assay [2] and in assay [3] (setting [4]) were 0.1 µM and 4.1 µM, respectively.
In the same order, the values of `CC(C)(C)COCCCCCN1C[C@H](O)[C@@H](O)[C@H](O)[C@@H]1CO` [#ID 26] are 23%, 0.64 µM and 29 µM.
For `CCCCCCCCCOCCCCCN1C[C@H](O)[C@@H](O)[C@H](O)[C@H]1CO` [#ID 27], the “GAA FP% (residual FP-signal)” value in assay [1] is on record as 8.4%. The IC50 in assay [2] worked out at 0.28 µM; in assay [3] (setting [4]), 2.8 µM.
For `CCCCCCN1C[C@H](O)[C@@H](O)[C@H](O)[C@H]1CO` [#ID 29], the “GAA FP% (residual FP-signal)” value in assay [1] (listed as 29) is listed as 49%. Besides, the IC50 in assay [2] (listed as 29) was found to be 1.5 µM.
For the compound `CCCCCCCN1C[C@H](O)[C@@H](O)[C@H](O)[C@H]1CO` [#ID 31], in assay [1], the “GAA FP% (residual FP-signal)” value is reported as 35%. Moreover, the results for the IC50 in assay [2] and in assay [3] (setting [4]) were 0.91 µM and 60 µM, respectively.
On to `CCCCCCCCN1C[C@H](O)[C@@H](O)[C@H](O)[C@H]1CO` [#ID 33], for which, in assay [1] (listed as 33), the “GAA FP% (residual FP-signal)” value was 28%. For the same compound, the half-inhibitory concentration (IC50) in assay [2] (listed as 33) stood at 0.54 µM; in assay [3] (Table S2, 4-MU alpha glucoside substrate, listed as 33, read-out: IC50 on GANAB) it was 16 µM.
Consider `OC[C@@H]1[C@@H](O)[C@H](O)[C@@H](O)CN1CCCCCOCc1ccc(-c2ccccc2)cc1F` [#ID 35], for which, in assay [1], the “GAA FP% (residual FP-signal)” value was 4.8%. Moreover, the IC50 came out at 0.021 µM in assay [2] and 0.71 µM in assay [3] (setting [4]).
In the same order, the values of `OC[C@@H]1[C@@H](O)[C@H](O)[C@@H](O)CN1CCCCCOCc1ccc(-c2ccccc2)c(F)c1` [#ID 37] are 3.6%, 0.037 µM and 1.6 µM.
Taken in the same sequence, the figures for `OC[C@@H]1[C@H](O)[C@@H](O)[C@H](O)CN1CCOCc1ccccc1` [#ID 47] were 34%, 0.55 µM and 4.6 µM.
Taken in the same sequence, the figures for `OC[C@@H]1[C@@H](O)[C@H](O)[C@@H](O)CN1CCCCCOCc1ccc2ccccc2c1` [#ID 58] were 7.7%, 0.25 µM and 0.85 µM.
As to `CC(C)(C)COCCOCCN1C[C@H](O)[C@@H](O)[C@H](O)[C@H]1CO` [#ID 89], in assay [1], the “GAA FP% (residual FP-signal)” value was 24%. For the same compound, the IC50 in assay [2] amounted to 0.73 µM; in assay [3] (setting [4]), 1.7 µM.
In the same order, the values of `CC(C)=CCC/C(C)=C/CC/C(C)=C/COCCCCCN1C[C@H](O)[C@@H](O)[C@H](O)[C@H]1CO` [#ID 90] are 6.8%, 0.49 µM and 2.5 µM.
`OC[C@@H]1[C@@H](O)[C@H](O)[C@@H](O)CN1CCCCCOCC12CC3CC(C1)CC(COCCCCCN1C[C@H](O)[C@@H](O)[C@H](O)[C@H]1CO)(C3)C2` [#ID 99]: the “GAA FP% (residual FP-signal)” value in assay [1] came out at 5.6%. Also, the figures for the IC50 in assay [2] and in assay [3] (setting [4]) were 0.28 µM and 1.3 µM, respectively.
Taken in the same sequence, the figures for `CC(C)=CCOCCCCCN1C[C@H](O)[C@@H](O)[C@H](O)[C@H]1CO` [#ID 100] were 19%, 0.6 µM and 9.9 µM.
In the same order, the values of `CCCCCCCCCN1C[C@H](O)[C@@H](O)[C@H](O)[C@H]1CO` [#ID 103] are 18%, 0.32 µM and 9 µM.
As for `OC[C@@H]1[C@H](O)[C@@H](O)[C@H](O)CN1CCCCCOCc1ccc(-c2ccccc2)cc1` [#ID 122], the “GAA FP% (residual FP-signal)” value in assay [1] is 35%. Besides, the IC50 in assay [2] is 1.3 µM.
For `OC[C@@H]1[C@H](O)[C@H](O)[C@@H](O)CN1CCCCCOCC12CC3CC(CC(C3)C1)C2` [#ID 150], in assay [1], the “GAA FP% (residual FP-signal)” value worked out at 15%. Also, the IC50 in assay [3] (setting [4]) is 12 µM.
Turning to `OC[C@H]1NC[C@H](O)[C@@H](O)[C@H]1O` [#ID 154], the “GAA FP% (residual FP-signal)” value in assay [1] is listed as 2.4%.
As to `OC[C@H]1N[C@H](C/C=C/CCOCC23CC4CC(CC(C4)C2)C3)[C@H](O)[C@@H](O)[C@@H]1O` [#ID 159], the “GAA FP% (residual FP-signal)” value in assay [1] came out at 23%. In assay [2], the IC50 turned out to be 0.45 µM.
As for `CCCCOCCOCCN1C[C@H](O)[C@@H](O)[C@H](O)[C@H]1CO` [#ID 200], in assay [1], the “GAA FP% (residual FP-signal)” value was 46%. Besides, in assay [2], the IC50 is 3.9 µM.
Turning to `CCCCCN1C[C@H](O)[C@@H](O)[C@H](O)[C@H]1CO` [#ID 297], the “GAA FP% (residual FP-signal)” value in assay [1] was determined as 12%. Also, the IC50 in assay [2] came out at 1.7 µM.
Turning to `O=S1(=O)O[C@@H]2[C@H](O)[C@@H](O)[C@H](O)[C@@H](CO)[C@@H]2O1` [Compound 12, 1,6-epi-cyclophellitol cyclosulfate, reference compound], the IC50 in assay [1] (competitive FluoPol-ABPP, rhGAA 80 nM, ABP II 80 nM, pH 5.0, read-out: apparent IC50 (GAA)) was 0.033 µM.
For `OC[C@@H]1[C@@H](O)[C@H](O)[C@@H](O)CN1CCCCCOCC12CC3CC(CC(C3)C1)C2` [Compound 13], in assay [1], the “GAA FP% (residual FP-signal)” value is on record as 8.9%. Moreover, the IC50 was determined as 5.36 ± 0.57 µM in assay [3] (4MU-α-glucoside substrate, pH 7.0, mean ± SD, 3 technical replicates, read-out: IC50 GANAB) and 5.4 µM in assay [3] (setting [4]).

One may read the IC50 as the concentration at which inhibition is half-maximal.

(Values after article PMC10466331, “Fluorescence polarisation activity-based protein profiling for the identification of deoxynojirimycin-type inhibitors selective for lysosomal retaining alpha- and beta-glucosidases” (Chemical Science, 2023).)
